According to patent US10889611B2, “Sialyltransferase inhibitors and uses thereof” (Academia Sinica, priority 2015, dated 2021):

What was measured:
[1] = molecular target: T1, α2,6(N)-sialyltransferases ST6GALI (Homo sapiens, UniProt P15907); experiment: Sialyltransferase inhibition assay, ST6GALI (reverse-phase HPLC); format: biochemical
T1 construct: purchased RnDSystems.com (R&D Systems)
T1 sequence (P15907 1-406): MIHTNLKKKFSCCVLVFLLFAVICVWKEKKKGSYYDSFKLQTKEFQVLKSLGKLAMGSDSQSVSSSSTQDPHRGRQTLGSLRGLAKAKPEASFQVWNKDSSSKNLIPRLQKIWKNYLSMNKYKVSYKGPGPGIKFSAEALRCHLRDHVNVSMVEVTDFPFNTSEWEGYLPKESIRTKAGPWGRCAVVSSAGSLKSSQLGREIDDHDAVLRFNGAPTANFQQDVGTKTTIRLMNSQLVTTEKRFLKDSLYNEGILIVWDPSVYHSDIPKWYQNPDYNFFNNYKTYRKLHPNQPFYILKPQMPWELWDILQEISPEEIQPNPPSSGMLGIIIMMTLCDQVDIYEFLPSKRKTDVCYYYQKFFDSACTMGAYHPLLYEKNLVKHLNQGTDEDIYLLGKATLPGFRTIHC
Procedure, shortened: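 Human ST6GalI (1.4 mU) incubated 15 min at 37° C with 25 μM Galβ1-4GlcNAc, 1 mM CMP-Neu5Ac and inhibitor in 200 mM MES, 100 mM NaCl, 0.5 mM EDTA, 0.01% Triton X-100. Sialylated product quantified by reverse-phase HPLC; kinetics from nonlinear fitting of initial rates.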

MDA-MB-231 cells = experiment: Transwell migration assay, breast cancer cells; format: cell-based, human
Source text: Migration assays were done using a transwell, in which a polycarbonate filter pre-coated with Matrigel (8-μm pores, Millicell; Millipore, Billerica, Mass.) was inserted therein. […] Cells that had migrated to the underside of the inserted filter were stained with hematoxylin solution. The cells in the upper side of the inserted membrane were rubbed with a cotton swab. The migrated cells on the underside were pictured in a 200× magnification field and quantified.

[2] = molecular target: T2, α2,3(N)-sialyltransferase ST3GALIII (Rattus norvegicus, UniProt Q02734); experiment: Sialyltransferase activity assay, ST3GALIII; format: biochemical; settings: α2,3-N-link; read-out: IC50 (μM) ST3GALIII
T2 construct: purchased Calbiochem
T2 sequence (Q02734 1-374): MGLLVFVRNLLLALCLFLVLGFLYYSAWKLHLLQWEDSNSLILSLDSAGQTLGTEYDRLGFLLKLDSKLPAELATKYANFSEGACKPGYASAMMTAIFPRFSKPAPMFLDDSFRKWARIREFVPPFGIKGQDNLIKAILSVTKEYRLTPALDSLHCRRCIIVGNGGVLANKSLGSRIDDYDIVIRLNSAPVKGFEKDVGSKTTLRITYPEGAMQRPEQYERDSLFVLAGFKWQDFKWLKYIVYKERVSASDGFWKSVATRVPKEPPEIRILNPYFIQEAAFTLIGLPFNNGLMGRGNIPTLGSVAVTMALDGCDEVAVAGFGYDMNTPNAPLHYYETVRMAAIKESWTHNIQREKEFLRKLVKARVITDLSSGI

[3] = molecular target: T3, α2,3(O)-sialyltransferase ST3GALI (Rattus norvegicus, UniProt Q6H8N0); experiment: Sialyltransferase inhibition assay, ST3GALI (reverse-phase HPLC); format: biochemical; settings: read-out: ST3GALI inhibition percentage
T3 construct: purchased Calbiochem
T3 sequence (Q6H8N0 1-340): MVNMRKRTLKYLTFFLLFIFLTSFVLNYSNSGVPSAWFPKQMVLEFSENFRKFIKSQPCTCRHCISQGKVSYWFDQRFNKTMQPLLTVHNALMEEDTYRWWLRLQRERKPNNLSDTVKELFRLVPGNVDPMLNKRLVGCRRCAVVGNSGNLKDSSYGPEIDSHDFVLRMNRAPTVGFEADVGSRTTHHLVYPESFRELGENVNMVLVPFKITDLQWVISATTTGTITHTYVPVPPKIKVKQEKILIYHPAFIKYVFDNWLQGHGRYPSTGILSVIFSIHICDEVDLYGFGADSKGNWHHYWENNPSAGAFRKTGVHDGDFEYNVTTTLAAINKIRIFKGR
Procedure, shortened: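 Rat ST3Gal(I) (1.4 mU) was incubated with 2.5 mM T-antigen and 1 mM CMP-Neu5Ac in 200 mM MES, 100 mM NaCl, 0.5 mM EDTA and 0.01% Triton X-100 with varied inhibitor, 15 min at 37 °C, then heat-quenched. Sialylated product was quantified by reverse-phase HPLC, and kinetic values came from nonlinear regression of initial rates.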

PANC-1 cells = experiment: In vitro transwell invasion analysis, PANC-1 cells; format: cell-based, human; settings: PANC-1 cells grown in fructose-containing medium, FIG. 4
Experimental: Migration assays were done using a transwell, in which a polycarbonate filter pre-coated with Matrigel (8-μm pores, Millicell; Millipore, Billerica, Mass.) was inserted therein. Cells were serum-starved for 24 h and then seeded (5×10^5 cells per upper chamber) and treated with or without the present compound(s) (concentrations as indicated), and the assays were run for 6 h. Cells that had migrated to the underside of the inserted filter were stained with hematoxylin solution. The cells in the upper side of the inserted membrane were rubbed with a cotton swab. The migrated cells on the underside were pictured in a 200× magnification field and quantified.
In this example, the ability of the FCW34 in suppressing the migration and/or invasion of pancreatic cancer cells was investigated using in vitro transwell analysis and in vivo mice model bearing pancreatic cancer.

C[C@H](CCC(=O)OCCOCCOCCN=[N+]=[N-])C1CC[C@H]2[C@@H]3CC[C@@H]4C[C@H](OC(=O)[C@H](CC(=O)O)Nc5ccc([N+](=O)[O-])c6nonc56)CC[C@]4(C)[C@H]3CC[C@]12C (stereo partly drawn) [Compound 3, (3S)-4-(((3R,5R,8R,9S,10S,13R,14S)-17-((R)-5-(2-(2-(2-azidoethoxy)ethoxy)ethoxy)-5-oxopentan-2-yl)-10,13-dimethylhexadecahydro-1H-cyclopenta[a]phenanthren-3-yl)oxy)-3-((7-nitrobenzo[c][1,2,5]oxadiazol-4-yl)amino)-4-oxobutanoic acid]
selectivity ratio ST3GALI/ST6GALI [1]: >139
IC50 ([1]; α2,6-N-link, read-out: IC50 (μM) ST6GALI): 3.59 ± 0.38 µM
migration of MDA-MD-231 cells (MDA-MB-231 cells; 20 μM, FIG. 1): inhibited the migration
IC50 (MDA-MB-231 cells; Homo sapiens, MDA-MB-231, 16 h, read-out: IC50 on migration): 10.64 ± 0.09 µM
IC50 [2]: 1.74 ± 0.09 µM
inhibition at 500 µM ([3]; measured at 500 μM): 0%
inhibition at 1000 µM ([3]; measured at 1 mM): 60%
invasion ability (PANC-1 cells): significantly inhibited
